Source: patent US20240025862A1, “SUBSTITUTED N-PHENYLURACILS AND SALTS THEREOF, AND USE THEREOF AS HERBICIDAL ACTIVE SUBSTANCES” (Bayer Aktiengesellschaft, priority 2020, published 2024)

Tests used:
Assay type in all cases: in vivo
[1] = test system: Abutilon theophrasti (ABUTH); assay: Post-emergence herbicidal action, greenhouse pot test; conditions: rated visually after about 3 weeks vs untreated controls, 100% = plants have died
Method in brief: (§1)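 Activity was scored by eye about 3 weeks after treatment against untreated plants, where 100% means dead plants and 0% means no difference. Plants at the one-leaf stage received a foliar spray of WP or EC formulations in water plus 0.5% additive (600 l/ha, up to 20 g/ha). Plants were grown in sandy loam pots in a greenhouse for 2–3 weeks before spraying.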

[2] = test system: Amaranthus retroflexus (AMARE); assay: as above; conditions: rated visually after about 3 weeks vs untreated controls, 100% = plants have died
Method in brief: as §1

[3] = test system: Pharbitis purpurea (PHBPU); assay: as above
Method in brief: as §1

[4] = test system: Polygonum convolvulus (POLCO); assay: as above
Method in brief: as §1

Stellaria media (STEME) = assay: as above
Method in brief: as §1

Veronica persica (VERPE) = assay: as above
Method in brief: as §1

Viola tricolor (VIOTR) = assay: as above
Method in brief: as §1

[5] = test system: Alopecurus myosuroides (ALOMY); assay: Post-emergence herbicidal action, greenhouse pot test (also comparative test C); conditions: rated visually after about 3 weeks vs untreated controls, 100% = plants have died
Method in brief: (§2)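 Greenhouse pot plants in sandy loam were sprayed post-emergence at the one-leaf stage (2–3 weeks after sowing) with WP or EC formulations plus 0.5% additive at 600 l/ha water. Activity was rated visually after about 3 weeks versus untreated controls (100% = dead, 0% = like control); rates were 20 g/ha or less, and 5 g/ha or less in the comparative test.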

[6] = test system: Echinochloa crus-galli (ECHCG); assay: as above
Method in brief: as §2

[7] = test system: Matricaria inodora (MATIN); assay: as above
Method in brief: as §2

Setaria viridis (SETVI) = assay: as above; conditions: for Post-emergence action against SETVI: 20 g/ha
Method in brief: as §2

Glycine max (GLXMA) = assay: Post-emergence crop plant compatibility, greenhouse pot test
Method in brief: (§3)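 Greenhouse pot test; post-emergence foliar spray at one-leaf stage, WP or EC in water + 0.5% additive, 600 l/ha. Visual rating after ~3 wk, % relative to untreated (0–100%).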

[8] = test system: Triticum aestivum (TRZAS); assay: as above; conditions: vs untreated controls
Method in brief: as §3

Zea mays (ZEAMX) = assay: as above; conditions: vs untreated controls
Method in brief: as §3

Oryza sativa (ORYSA) = assay: Post-emergence crop plant compatibility, greenhouse pot test (also comparative test C); conditions: for Post-emergence action against ORYSA (crop plant compatibility): vs untreated controls
Method in brief: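 Visual damage versus untreated plants (0% = like control, 100% = plants died) was scored about 3 weeks after a post-emergence spray in greenhouse pots. Treatment: one-leaf stage, WP or EC in water at 600 l/ha with 0.5% additive; a/b/c mark different dosages on the same crop.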

Avena fatua (AVEFA) = assay: Post-emergence herbicidal action, greenhouse pot test; conditions: rated visually after about 3 weeks vs untreated controls, 100% = plants have died
Method in brief: as §1

Structure (SMILES) | Post-emergence action at 1.25 g/ha against ABUTH in % [1] [%] | Post-emergence action at 5 g/ha against ABUTH in % [1] [%] | Post-emergence action at 20 g/ha against ABUTH in % [1] [%] | Post-emergence action at 1.25 g/ha against AMARE in % [2] [%] | Post-emergence action at 5 g/ha against AMARE in % [2] [%] | Post-emergence action at 20 g/ha against AMARE in % [2] [%] | Post-emergence action against PHBPU in % ([3]; dosage 1.25 g/ha) [%] | Post-emergence action against PHBPU in % ([3]; dosage 5 g/ha) [%] | Post-emergence action against PHBPU in % ([3]; dosage 20 g/ha) [%] | Post-emergence action against POLCO in % ([4]; dosage 20 g/ha) [%] | Post-emergence action against VERPE (Veronica persica (VERPE); 5 g/ha) [%] | Post-emergence action against VERPE (Veronica persica (VERPE); 20 g/ha) [%] | Post-emergence action against VIOTR (Viola tricolor (VIOTR); 1.25 g/ha) [%] | Post-emergence action against VIOTR (Viola tricolor (VIOTR); 5 g/ha) [%] | Post-emergence action against VIOTR (Viola tricolor (VIOTR); 20 g/ha) [%] | Post-emergence action at 20 g/ha against ALOMY in % [5] [%] | Post-emergence action against ECHCG in % ([6]; dosage 20 g/ha) [%] | Post-emergence action against MATIN in % ([7]; dosage 5 g/ha) [%] | Post-emergence action against MATIN in % ([7]; dosage 20 g/ha) [%] | Post-emergence action against SETVI (Setaria viridis (SETVI)) [%] | other results
Cn1c(C(F)(F)F)cc(=O)n(-c2cc(Sc3ccccc3OCC(=O)OCC3CCOC3)c(Cl)cc2F)c1=O (racemic) [I.1-72] | 100 | 100 | 100 | 80 | 100 | 100 | 80 | 100 | 100 | 100 | 100 | 100 | 100 | 100 | 100 | 80 | 100 | 90 | 100 | 100 | Post-emergence action against POLCO in % ([4]; dosage 1.25 g/ha): 80%; Post-emergence action against POLCO in % ([4]; dosage 5 g/ha): 100%; Post-emergence action against STEME (Stellaria media (STEME); 5 g/ha): 100%; Post-emergence action against STEME (Stellaria media (STEME); 20 g/ha): 100%; Post-emergence action against VERPE (Veronica persica (VERPE); 1.25 g/ha): 100%; Post-emergence action against SETVI in % (Setaria viridis (SETVI); dosage 1.25 g/ha): 100%; Post-emergence action against SETVI in % (Setaria viridis (SETVI); dosage 5 g/ha): 100%; Post-emergence action against GLXMA in % (Glycine max (GLXMA); 1.25 g/ha): 10%; Post-emergence action against GLXMA in % (Glycine max (GLXMA); 5 g/ha): 20%; Post-emergence action against TRZAS (crop plant compatibility) ([8]; 1.25 g/ha): 20%; Post-emergence action against ZEAMX (crop plant compatibility) (Zea mays (ZEAMX); 1.25 g/ha): 10%; Post-emergence action against ZEAMX (crop plant compatibility) (Zea mays (ZEAMX); 5 g/ha): 20%; Post-emergence action against ORYSA (crop plant compatibility) (Oryza sativa (ORYSA); 1.25 g/ha): 10%; Post-emergence action against ORYSA (crop plant compatibility) (Oryza sativa (ORYSA); 5 g/ha): 20%
Cn1c(C(F)(F)F)cc(=O)n(-c2cc(Oc3ccccc3OCC(=O)OCc3ccccn3)c(C#N)cc2F)c1=O [I.9-276] | 100 | 100 | 100 | 100 | 100 | 100 | 100 | 100 | 100 | 100 | 100 | 100 | 100 | 100 | 100 | 100 | 100 | 100 | 100 | 100 | Post-emergence action at 5 g/ha against AVEFA in % (Avena fatua (AVEFA); 5 g/ha): 80%; Post-emergence action at 20 g/ha against AVEFA in % (Avena fatua (AVEFA)): 90%; Post-emergence action against VERPE (Veronica persica (VERPE); 1.25 g/ha): 80%; Post-emergence action at 5 g/ha against ALOMY in % [5]: 100%; Post-emergence action against ECHCG in % ([6]; dosage 5 g/ha): 100%; Post-emergence action against SETVI in % (Setaria viridis (SETVI); dosage 1.25 g/ha): 100%; Post-emergence action against SETVI in % (Setaria viridis (SETVI); dosage 5 g/ha): 100%; Post-emergence action against GLXMA in % (Glycine max (GLXMA); 1.25 g/ha): 0%; Post-emergence action against TRZAS (crop plant compatibility) ([8]; 1.25 g/ha): 0%; Post-emergence action against ZEAMX (crop plant compatibility) (Zea mays (ZEAMX); 1.25 g/ha): 0%; Post-emergence action against ZEAMX (crop plant compatibility) (Zea mays (ZEAMX); 5 g/ha): 0%; Post-emergence action against ZEAMX (crop plant compatibility) (Zea mays (ZEAMX); 20 g/ha): 20%; Post-emergence action against ORYSA (crop plant compatibility) (Oryza sativa (ORYSA); 1.25 g/ha): 0%; Post-emergence action against ORYSA (crop plant compatibility) (Oryza sativa (ORYSA); 5 g/ha): 0%; Post-emergence action against ORYSA in % (Oryza sativa (ORYSA); 20 g/ha, crop plant compatibility): 0%
Cn1c(C(F)(F)F)cc(=O)n(-c2cc(Oc3ccccc3OCC(=O)OCc3cccnn3)c(Cl)cc2F)c1=O [I.7-291] | 100 | 100 | 100 | 100 | 100 | 100 | 100 | 100 | 100 | 100 | 100 | 100 | 100 | 100 | 100 | 100 | 100 | 100 | 100 | 100 | Post-emergence action at 20 g/ha against AVEFA in % (Avena fatua (AVEFA)): 100%; Post-emergence action at 5 g/ha against ALOMY in % [5]: 80%; Post-emergence action against ECHCG in % ([6]; dosage 5 g/ha): 100%; Post-emergence action against SETVI in % (Setaria viridis (SETVI); dosage 1.25 g/ha): 100%; Post-emergence action against SETVI in % (Setaria viridis (SETVI); dosage 5 g/ha): 100%; Post-emergence action against TRZAS (crop plant compatibility) ([8]; 1.25 g/ha): 0%; Post-emergence action against TRZAS (crop plant compatibility) ([8]; 5 g/ha): 0%; Post-emergence action against ZEAMX (crop plant compatibility) (Zea mays (ZEAMX); 1.25 g/ha): 10%; Post-emergence action against ORYSA (crop plant compatibility) (Oryza sativa (ORYSA); 1.25 g/ha): 20%
Cn1c(C(F)(F)F)cc(=O)n(-c2cc(Oc3ccccc3OCC(=O)OCCOC(F)(F)F)c(C#N)cc2F)c1=O [I.9-41] | 100 | 100 | 100 | 100 | 100 | 100 | 100 | 100 | 100 | 100 | 100 | 100 | 90 | 100 | 100 | 80 | 100 | 100 | 100 | 100 | Post-emergence action at 20 g/ha against AVEFA in % (Avena fatua (AVEFA)): 80%; Post-emergence action against POLCO in % ([4]; dosage 5 g/ha): 90%; Post-emergence action against ECHCG in % ([6]; dosage 5 g/ha): 80%; Post-emergence action against MATIN in % ([7]; dosage 1.25 g/ha): 100%; Post-emergence action against SETVI in % (Setaria viridis (SETVI); dosage 1.25 g/ha): 100%; Post-emergence action against SETVI in % (Setaria viridis (SETVI); dosage 5 g/ha): 100%; Post-emergence action against TRZAS (crop plant compatibility) ([8]; 1.25 g/ha): 0%; Post-emergence action against TRZAS (crop plant compatibility) ([8]; 5 g/ha): 10%; Post-emergence action against TRZAS (crop plant compatibility) ([8]; 20 g/ha): 20%; Post-emergence action against ZEAMX (crop plant compatibility) (Zea mays (ZEAMX); 1.25 g/ha): 10%; Post-emergence action against ORYSA (crop plant compatibility) (Oryza sativa (ORYSA); 1.25 g/ha): 0%; Post-emergence action against ORYSA (crop plant compatibility) (Oryza sativa (ORYSA); 5 g/ha): 0%
